US5340829A, “Immunoregulatory agents” (priority 1992, dated 1994)
“Also recorded” adds a separate entry of the source.

Experiments:
aldose reductase = conditions: approximate molar concentration necessary for 50% inhibition of aldose reductase; cited from earlier work
[1] = tested on: ear swelling in response to PMA; conditions: general statement on NSAIDs; cited from earlier work
[2] = tested on: Human polymorphonuclear leukocytes (PMNs); conditions: known from the art; cited from earlier work
[3] = tested on: delayed-type hypersensitivity (DTH); assay: DTH ear swelling, comparison of sorbinil, tolrestat, WF-3681 and NSAIDs (Experiment 23, TABLE 5); assay type: in vivo, mice; conditions: for Effect on DTH as measured by ear swelling (in words): mouse, in vivo
Method: Delayed type hypersensitivity, which involves the participation of T lymphocytes and macrophages, can be studied in vivo by exposing (or priming) a mammal to a novel antigen and then reexposing (or challenging) the primed animal to the same antigen four to seven days later. The classic DTH response includes symptoms of inflammatory response, induration and erythema, which peak at 24 to 48 hours after challenging and then decline slowly.
Eight-week old female C57BL/6J mice (Jackson Labs) were divided into primed and unprimed groups. The five mice in the primed group were primed to 2,4-dinitrofluorobenzene (DNFB; Sigma Chemical Co., Grade 1, approx. 98%, Lot 129C-0065, No. d-6879) by painting their shaved ventral skins with 0.1 ml of 0.5% DNFB in ethanol:acetone (3:1). The five mice in the unprimed group were shaved and topically painted on their ventral skins with the ethanol:acetone (3:1) vehicle alone. The mice in both groups were challenged with DNFB four days later. A suitable patch of skin, the ear, was chosen for challenging. One ear was designated for challenging and the other to serve as a control. The thickness of each ear across the pinna was measured using micrometer calipers. The first measurements were taken four days after priming and are plotted as day 0 in FIG. 13. Next, each mouse was subjected to the following challenge regimen: one ear was challenged with one drop of 0.35% DNFB in olive oil, and the other (unchallenged control) ear was exposed to olive oil alone. The ear thicknesses (ET) of the challenged ear and the unchallenged ear were measured daily, and the swelling responses are plotted in FIG. 13 as: [formula]
Three groups of eight-week old female C57BL/6J mice were primed to DNFB as previously described. […] Six hours later the first sets of ear measurements were taken, and one ear of each mouse was challenged.
The Table has 4 columns, listing (left to right) each drug tested in column 1, drug concentrations in column 2, relative swelling in column 3, and effectiveness in column 4.

[4] = tested on: ear swelling produced by topical application of arachidonic acid; assay: Ear swelling produced by topical arachidonic acid (Experiment 22); assay type: in vivo, mice; conditions: topical administration
[5] = tested on: Human polymorphonuclear leukocytes (PMNs); assay: LTB4 release by polymorphonuclear leukocytes (Experiment 10); assay type: cell-based; conditions: normal human PMNs
Source text: Human polymorphonuclear leukocytes (PMNs) were used to study LTB4 release, which is known to be involved in inflammation.

[6] = concentration 8.5 μM, 0 = no effect

| Structure (SMILES) | IC50 (aldose reductase) [µM] | relative swelling (R) ([3]; concentration 8.5 μM) | effectiveness (1 - R) (100%) [3, 6] [%] | Effect on DTH as measured by ear swelling (in words) [3] | further results |
| --- | --- | --- | --- | --- | --- |
| O=c1c(O)c(-c2ccccc2)oc2ccccc12 [Hydroxyflavone, 3-hydroxyflavone] | ~1 | – | – | – | – |
| CC(=O)Oc1ccccc1C(=O)O [Aspirin, acetylsalicylic acid] | ~100 | 1.0 | 0 | not effective in preventing DTH; also recorded: failed to inhibit DTH | Swelling of mouse ears in response to PMA (NSAIDs, stated in contrast) [1]: inhibit this response; LTB4 production (known) [2]: inhibit LTB4 production |
| CC(C)Cc1ccc(C(C)C(=O)O)cc1 (centres unmarked) [Ibuprofen, ibuprofen] | – | 1.0 | 0 | not effective in preventing DTH | – |
| CC1=C(/C=C/C(C)=C/C=C/C(C)=C/C(=O)O)C(C)(C)CCC1 [retinoic acid] | – | – | – | – | LTB4 production (known) [2]: inhibit LTB4 production |
| CC(=O)Nc1ccc(O)cc1 [Acetaminophen, acetaminophen] | – | 1.0 | 0 | not effective in preventing DTH | – |
| COc1ccc2c(c1)c(CC(=O)O)c(C)n2C(=O)c1ccc(Cl)cc1 [indomethacin] | – | – | – | – | Ear swelling produced by topical arachidonic acid [4]: completely inhibited |
| CCC1(c2ccccc2)C(=O)NC(=O)NC1=O [Phenobarbital, phenobarbital] | ~1000 | – | – | – | – |
| C[C@@H]1O[C@@H](Oc2c(-c3ccc(O)c(O)c3)oc3cc(O)cc(O)c3c2=O)[C@H](O)[C@H](O)[C@H]1O [Quercitrin, quercitrin] | – | – | – | not effective in preventing DTH | effectiveness (1 - R) (100%) ([3]; concentration 3 μM): 2%; relative swelling (R) ([3]; concentration 3 μM): 0.98 |
| O=C(O)CCC1OC(=O)C(O)=C1c1ccccc1 (centres unmarked) [WF-3681, 3-(2,5-dihydro-4-hydroxy-5-oxo-3-phenyl-2-furyl)propionic acid] | – | – | – | strong and substantially identical inhibitory effect | Production of LTB4 [5]: no effect; effectiveness (1 - R) (100%) ([3]; concentration 2.125 μM): 4%; relative swelling (R) ([3]; concentration 2.125 μM): 0.96; effectiveness (1 - R) (100%) ([3]; concentration 4.25 μM): 39%; relative swelling (R) ([3]; concentration 4.25 μM): 0.62; relative swelling (R) ([3]; concentration 6 μM): 0.68 |
